Experimental findings from patent US20240391930A1, “SPIROCYCLIC BICYCLIC MODULATORS OF CHOLESTEROL BIOSYNTHESIS AND THEIR USE FOR PROMOTING REMYELINATION” (GENENTECH, INC., priority 2021, published 2024) are described below.

The structures appear in SMILES notation.

In assay [1] the target is T1, human emopamil binding protein and human 7-dehydrocholesterol reductase (hEBP-DHCR7) (Homo sapiens, UniProt Q15125).
T1 construct: expressed in transfected cells; host or cells: HEK 293 cells, transient transfection with 2 DNA constructs
T1 sequence (Q15125 whole entry): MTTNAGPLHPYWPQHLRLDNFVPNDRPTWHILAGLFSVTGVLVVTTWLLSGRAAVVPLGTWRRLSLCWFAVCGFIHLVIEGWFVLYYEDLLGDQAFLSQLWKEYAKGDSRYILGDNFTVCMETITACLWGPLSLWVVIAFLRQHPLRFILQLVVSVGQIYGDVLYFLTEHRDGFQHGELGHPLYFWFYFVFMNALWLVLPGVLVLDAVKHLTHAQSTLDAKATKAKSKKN
The experiment in a line: hEBP-DHCR7 radioligand filtration binding assay. The note with it: membranes of HEK293 co-expressing hEBP and DHCR7; [3H] 2-thia-6-azaspiro[3.4]octane radioligand; 8 doses 0.06 to 5000 nM. A digest of the protocol:
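Membranes from HEK293 cells transiently co-expressing human EBP and DHCR7 (10 μg/well) incubated 3 h at 22 °C with tritiated 2-thia-6-azaspiro[3.4]octane dioxide radioligand (25 nM stock addition) and compound at 0.06–5000 nM final. Bound ligand collected on PEI-treated GF/B filters, scintillation-counted. IC50 by Hill fit; reported as Ki.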

The subject of a further assay is EpiSC-derived OPCs. The experiment in a line: In vitro phenotypic screening of OPCs (MBP high-content imaging). It counts as cell-based. The note with it: Mus musculus, 72 h; percentage of MBP-positive oligodendrocytes, 3 days, 0.5 nM to 1000 nM; read-out: OPC EC50. A digest of the protocol: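 Mouse EpiSC-derived OPCs seeded at 150,000/cm^2 without growth factors, treated 3 days at 37° C with 8-point doses from 1000 nM to 0.5 nM. Fixed, MBP immunostained with DAPI; high-content imaging gives percentage MBP-positive oligodendrocytes.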

In turn, `CC(C)n1nc(-c2cccc(C(F)(F)F)c2)cc1[C@H]1[C@@H]2C[C@@H](N3CCC4(C3)CS(=O)(=O)C4)C[C@@H]21` (single isomer, unassigned) [Compound 2] yielded an inhibition constant (Ki) in assay [1] of 5.91 nM. For the same molecule, the EC50 with EpiSC-derived OPCs was found to be 0.9 nM.
Molecule `CC(C)n1nc(-c2cncc(C(F)(F)F)c2)cc1[C@H]1[C@@H]2C[C@H](N3CCC4(C3)CS(=O)(=O)C4)C[C@@H]21` (single isomer, unassigned) [Compound 4] returned a Ki in assay [1] of 14.5 nM. Moreover, the EC50 with EpiSC-derived OPCs was 14 nM.
In the same order, the values of `CC(C)n1nc(-c2cncc(C(F)(F)F)c2)cc1[C@H]1[C@@H]2C[C@H](N3CC[C@@]4(CCS(=O)(=O)C4)C3)C[C@@H]21` (single isomer, unassigned) [Compound 9*] are 20.1 nM and 3.8 nM.
`CC(C)n1nc(-c2cccc(C(F)(F)F)n2)cc1[C@H]1[C@@H]2C[C@@H](N3CCC4(C3)CS(=O)(=O)C4)C[C@@H]21` (single isomer, unassigned) [Compound 11] had an inhibitory constant (Ki) in assay [1] of 13.2 nM. Moreover, in the assay on EpiSC-derived OPCs, the EC50 amounted to 14 nM.
In the same order, the values of `CC(C)n1nc(-c2cccc(C(F)(F)F)n2)cc1[C@H]1[C@@H]2C[C@H](N3CCC4(C3)CS(=O)(=O)C4)C[C@@H]21` (single isomer, unassigned) [Compound 12] are 12 nM and 9.7 nM.
As for `CC(C)n1nc(-c2cncc(C(F)(F)F)c2)nc1[C@H]1[C@@H]2C[C@@H](N3CCC4(C3)CS(=O)(=O)C4)C[C@@H]21` (single isomer, unassigned) [Compound 16], in assay [1], the Ki is 21 nM. For the same molecule, the EC50 in the assay on EpiSC-derived OPCs turned out to be 24 nM.
In turn, `CC(C)n1nc(-c2cncc(C(F)(F)F)c2)nc1[C@H]1[C@@H]2C[C@H](N3CCC4(C3)CS(=O)(=O)C4)C[C@@H]21` (single isomer, unassigned) [Compound 17] registered a Ki in assay [1] of 116 nM. The EC50 in the assay with EpiSC-derived OPCs was 420 nM.
The molecule `CC(C)n1nc(-c2ccnc(C(F)(F)F)c2)cc1[C@H]1[C@@H]2C[C@@H](N3CCC4(C3)CS(=O)(=O)C4)C[C@@H]21` (single isomer, unassigned) [Compound 18] had a Ki in assay [1] of 17 nM. The EC50 in the assay with EpiSC-derived OPCs worked out at 15 nM.
As to `CC(C)n1nc(-c2ccnc(C(F)(F)F)c2)cc1[C@H]1[C@@H]2C[C@H](N3CCC4(C3)CS(=O)(=O)C4)C[C@@H]21` (single isomer, unassigned) [Compound 19], the affinity in assay [1], expressed as Ki, was 9.6 nM. The EC50 with EpiSC-derived OPCs came out at 13 nM.
`CC(C)n1nc(-c2cc(C(F)(F)F)ccn2)cc1[C@H]1[C@@H]2C[C@@H](N3CCC4(C3)CS(=O)(=O)C4)C[C@@H]21` (single isomer, unassigned) [Compound 20]: the Ki in assay [1] stood at 48.9 nM. Moreover, the EC50 with EpiSC-derived OPCs was 39 nM.
`CC(C)n1nc(-c2cc(C(F)(F)F)ccn2)cc1[C@H]1[C@@H]2C[C@H](N3CCC4(C3)CS(=O)(=O)C4)C[C@@H]21` (single isomer, unassigned) [Compound 21] displayed a Ki in assay [1] of 17.1 nM. In addition, the EC50 in the assay with EpiSC-derived OPCs was 6.6 nM.
In turn, `CC(C)n1nc(C(F)(F)F)cc1[C@H]1[C@@H]2C[C@@H](N3CCC4(C3)CS(=O)(=O)C4)C[C@@H]21` (single isomer, unassigned) [Compound 22] returned a Ki in assay [1] of 12.4 nM. The EC50 in the assay with EpiSC-derived OPCs came out at 53 nM.
In the case of `CC(C)n1nc(C(F)(F)F)cc1[C@H]1[C@@H]2C[C@H](N3CCC4(C3)CS(=O)(=O)C4)C[C@@H]21` (single isomer, unassigned) [Compound 23], the inhibition constant (Ki) in assay [1] is 12.4 nM. Also, the 50% effective concentration (EC50) in the assay with EpiSC-derived OPCs came out at 53 nM.
The molecule `CCn1nc(-c2cncc(C(F)(F)F)c2)cc1[C@H]1[C@@H]2C[C@@H](N3CCC4(C3)CS(=O)(=O)C4)C[C@@H]21` (single isomer, unassigned) [Compound 24] returned a Ki in assay [1] of 19.9 nM. The 50% effective concentration (EC50) in the assay on EpiSC-derived OPCs worked out at 9.3 nM.
On the same counts, the results for `CCn1nc(-c2cncc(C(F)(F)F)c2)cc1[C@H]1[C@@H]2C[C@H](N3CCC4(C3)CS(=O)(=O)C4)C[C@@H]21` (single isomer, unassigned) [Compound 25] are 14.6 nM and 4.2 nM.
As to `CC(C)n1nc(-c2cncc(C(F)(F)F)c2)cc1[C@H]1[C@@H]2C[C@@H](N3CCC4(CC3)CS(=O)(=O)C4)C[C@@H]21` (single isomer, unassigned) [Compound 38], in assay [1], the Ki was 41 nM. In addition, the half-maximal effective concentration (EC50) in the assay on EpiSC-derived OPCs worked out at 4.9 nM.
As for `CC(C)n1nc(-c2cncc(C(F)(F)F)c2)cc1[C@H]1[C@@H]2C[C@H](N3CCC4(CC3)CS(=O)(=O)C4)C[C@@H]21` (single isomer, unassigned) [Compound 40], the Ki in assay [1] was found to be 18.4 nM. Also, the EC50 in the assay on EpiSC-derived OPCs is 15 nM.
The molecule `CC(C)n1nc(-c2cccc(C(F)(F)F)n2)cc1[C@H]1[C@@H]2C[C@@H](N3CCC4(CC3)CS(=O)(=O)C4)C[C@@H]21` (single isomer, unassigned) [Compound 47] registered an inhibition constant Ki in assay [1] of 175 nM. In addition, the EC50 in the assay on EpiSC-derived OPCs was determined as 1.7 nM.
As to `CC(C)n1nc(-c2cccc(C(F)(F)F)n2)cc1[C@H]1[C@@H]2C[C@H](N3CCC4(CC3)CS(=O)(=O)C4)C[C@@H]21` (single isomer, unassigned) [Compound 48], affinity in assay [1] was put at a Ki of 12.5 nM. In the assay on EpiSC-derived OPCs, the EC50 was 15 nM.
On the same counts, the results for `CC(C)n1nc(-c2ccnc(C(F)(F)F)n2)cc1[C@H]1[C@@H]2C[C@@H](N3CCC4(CC3)CS(=O)(=O)C4)C[C@@H]21` (single isomer, unassigned) [Compound 49] are 64.9 nM and 4.6 nM.
Molecule `CC(C)n1nc(-c2ccnc(C(F)(F)F)n2)cc1[C@H]1[C@@H]2C[C@H](N3CCC4(CC3)CS(=O)(=O)C4)C[C@@H]21` (single isomer, unassigned) [Compound 50] gave a Ki in assay [1] of 49 nM. Besides, the EC50 in the assay on EpiSC-derived OPCs worked out at 69 nM.
Regarding `CC(C)n1nc(-c2cncc(C(F)(F)F)c2)cc1[C@H]1[C@@H]2C[C@@H](N3CC4(C3)CS(=O)(=O)C4)C[C@@H]21` (single isomer, unassigned) [Compound 98*], in assay [1], the Ki amounted to 54 nM. In addition, in the assay on EpiSC-derived OPCs, the EC50 is 300 nM.
In the same order, the values of `CC(C)n1nc(-c2cncc(C(F)(F)F)c2)cc1[C@H]1[C@@H]2C[C@H](N3CC4(C3)CS(=O)(=O)C4)C[C@@H]21` (single isomer, unassigned) [Compound 99*] are 48 nM and 300 nM.
On the same counts, the results for `CC(C)n1nc(-c2ccc(C(F)(F)F)cc2)cc1[C@H]1[C@@H]2C[C@H](N3CCC4(C3)CS(=O)(=O)C4)C[C@@H]21` [Compound 5, 6-((1R,3r,5S,6r)-6-(1-Isopropyl-3-(4-(trifluoromethyl)phenyl)-1H-pyrazol-5-yl)bicyclo[3.1.0]hexan-3-yl)-2-thia-6-azaspiro[3.4]octane 2,2-dioxide] are 43 nM and 8 nM.
In assay [1], `CC(C)n1nc(-c2cnc(C(F)(F)F)nc2)cc1[C@H]1[C@@H]2C[C@H](N3CCC4(C3)CS(=O)(=O)C4)C[C@@H]21` [Compound 6, 6-((1R,3r,5S,6r)-6-(1-Isopropyl-3-(2-(trifluoromethyl)pyrimidin-5-yl)-1H-pyrazol-5-yl)bicyclo[3.1.0]hexan-3-yl)-2-thia-6-azaspiro[3.4]octane 2,2-dioxide] had a Ki of 18.1 nM. The EC50 in the assay on EpiSC-derived OPCs was found to be 200 nM.
In the same order, the values of `CC(C)n1nc(-c2ccnc(C(F)(F)F)n2)cc1[C@H]1[C@@H]2C[C@H](N3CCC4(C3)CS(=O)(=O)C4)C[C@@H]21` [Compound 15, 6-((1R,3r,5S,6r)-6-(1-Isopropyl-3-(2-(trifluoromethyl)pyrimidin-4-yl)-1H-pyrazol-5-yl)bicyclo[3.1.0]hexan-3-yl)-2-thia-6-azaspiro[3.4]octane 2,2-dioxide] are 20 nM and 6.6 nM.
Regarding `CC(C)n1nc(-c2ccnc(C(F)(F)F)n2)cc1[C@H]1[C@@H]2C[C@@H](N3CCC4(C3)CS(=O)(=O)C4)C[C@@H]21` [Compound 28, 6-((1R,3s,5S,6r)-6-(1-isopropyl-3-(2-(trifluoromethyl)pyrimidin-4-yl)-1H-pyrazol-5-yl)bicyclo[3.1.0]hexan-3-yl)-2-thia-6-azaspiro[3.4]octane 2,2-dioxide], the inhibitory constant (Ki) in assay [1] was 24.6 nM. Besides, in the assay with EpiSC-derived OPCs, the 50% effective concentration (EC50) worked out at 39 nM.
For `C=C(c1cc([C@H]2[C@@H]3C[C@H](N4CCC5(C4)CS(=O)(=O)C5)C[C@@H]32)n(C(C)C)n1)C(F)(F)F` [Compound 31, 6-((1R,3r,5S,6r)-6-(1-Isopropyl-3-(3,3,3-trifluoroprop-1-en-2-yl)-1H-pyrazol-5-yl)bicyclo[3.1.0]hexan-3-yl)-2-thia-6-azaspiro[3.4]octane 2,2-dioxide], in assay [1], the affinity, expressed as Ki, was 19.2 nM. Further, the 50% effective concentration (EC50) with EpiSC-derived OPCs turned out to be 30 nM.
In turn, `CC(C)n1nc(C2(C(F)(F)F)CC2)cc1[C@H]1[C@@H]2C[C@H](N3CCC4(C3)CS(=O)(=O)C4)C[C@@H]21` [Compound 32, 6-((1R,3r,5S,6r)-6-(1-Isopropyl-3-(1-(trifluoromethyl)cyclopropyl)-1H-pyrazol-5-yl)bicyclo[3.1.0]hexan-3-yl)-2-thia-6-azaspiro[3.4]octane 2,2-dioxide] displayed a Ki in assay [1] of 13.5 nM. In addition, the EC50 in the assay on EpiSC-derived OPCs is 29 nM.
